Results as given in patent US11377442B2, “Small molecule agonists and antagonists of NR2F6 activity” (ZANDER THERAPEUTICS, INC., priority 2016, dated 2022).

Target: T1, NR2F6 (Homo sapiens, UniProt P10588)
T1 construct: expressed in transfected cells; also transient transfection
T1 sequence (P10588 1-404): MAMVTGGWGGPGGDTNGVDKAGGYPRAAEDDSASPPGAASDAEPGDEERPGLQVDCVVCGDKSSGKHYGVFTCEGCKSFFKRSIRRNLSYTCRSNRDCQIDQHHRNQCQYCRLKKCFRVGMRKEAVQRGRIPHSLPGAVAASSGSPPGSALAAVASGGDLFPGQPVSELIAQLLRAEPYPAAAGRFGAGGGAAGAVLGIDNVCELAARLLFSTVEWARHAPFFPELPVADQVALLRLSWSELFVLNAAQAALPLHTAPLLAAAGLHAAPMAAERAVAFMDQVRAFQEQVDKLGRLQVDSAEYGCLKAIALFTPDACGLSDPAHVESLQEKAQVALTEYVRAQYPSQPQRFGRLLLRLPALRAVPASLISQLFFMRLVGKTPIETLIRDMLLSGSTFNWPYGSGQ
Test: NR2F6 agonist screening, Firefly signal cmpd/DMSO
Assay type: cell-based
Details: for Firefly/Renilla (NR2F6 stable, clone F4): ratio Firefly/Renilla; for Firefly, NR2F6 stable (clone F4)/pGL4: ratio of Firefly in NR2F6 stable clone F4 to pGL4

[1] = C11 analogs follow set (Tables 2-10)

Firefly, cmpd/DMSO repeat 1 [1]	Firefly, cmpd/DMSO repeat 2 [1]	Firefly, cmpd/DMSO repeat 1 (Table 9)	Firefly, cmpd/DMSO repeat 2 (Table 9)	SMILES	further results
		1.1	1.0	COc1cccc(S(=O)(=O)c2cc3cccc(OC)c3oc2=O)c1 [Compound C226]	
		1.0	1.3	COc1cccc2cc(S(=O)(=O)c3cc(C)cc(C)c3)c(=O)oc12 [Compound C227]	
		1.0	1.3	COc1cccc2cc(S(=O)(=O)c3ccc(C)c(Cl)c3)c(=O)oc12 [Compound C228]	
		2.9	1.8	COc1cccc2cc(S(=O)(=O)c3cc(F)cc(F)c3)c(=O)oc12 [Compound C229]	
		0.7	0.9	COc1cccc2cc(S(=O)(=O)c3ccc(C)cc3)c(=O)oc12 [Compound C231]	
		1.0	0.9	COc1ccc(S(=O)(=O)c2cc3cccc(OC)c3oc2=O)cc1 [Compound C232]	
		2.8	2.1	COc1cccc2cc(S(=O)(=O)c3ccc(Br)cc3)c(=O)oc12 [Compound C233]	
		2.2	1.8	COc1cccc2cc(S(=O)(=O)c3ccc(C(C)(C)C)cc3)c(=O)oc12 [Compound C234]	
		2.1	2.7	COc1cccc2cc(S(=O)(=O)c3ccc(C(C)C)cc3)c(=O)oc12 [Compound C241]	
		1.1	1.1	COc1cccc2cc(S(=O)(=O)c3ccc(C)c(C)c3)c(=O)oc12 [Compound C242]	
		2.0	3.3	CCOc1cccc2cc(S(=O)(=O)c3ccc(C)c(C)c3)c(=O)oc12 [Compound C243]	
		1.9	1.3	COc1cccc2cc(S(=O)(=O)c3ccc(Cl)c(Cl)c3)c(=O)oc12 [Compound C245]	
		7.4	6.5	CCOc1cccc2cc(S(=O)(=O)c3ccc(Cl)c(Cl)c3)c(=O)oc12 [Compound C246]	
		2.2	1.6	COc1ccc(S(=O)(=O)c2cc3cccc(OC)c3oc2=O)cc1OC [Compound C247]	
		8.6	4.3	CCOc1cccc2cc(S(=O)(=O)c3ccc(OC)c(OC)c3)c(=O)oc12 [Compound C248]	Firefly/Renilla (NR2F6 stable, clone F4) (Table 12): 2.8; Firefly, NR2F6 stable (clone F4)/pGL4 (Table 12): 4.6; Firefly, cmpd/DMSO repeat 1 (Table 12): 8.6; Firefly, cmpd/DMSO repeat 2 (Table 12): 4.3
		1.4	1.5	COc1ccc(OC)c(S(=O)(=O)c2cc3cccc(OC)c3oc2=O)c1 [Compound C249]	
		1.2	1.8	COc1cccc2cc(S(=O)(=O)c3ccc(F)c(Cl)c3)c(=O)oc12 [Compound C250]	
		2.1	1.9	CCOc1cccc2cc(S(=O)(=O)c3ccc(F)c(Cl)c3)c(=O)oc12 [Compound C251]	
		2.5	2.7	COc1cccc2cc(S(=O)(=O)c3ccccc3F)c(=O)oc12 [Compound C253]	
		1.5	1.5	COc1cccc2cc(S(=O)(=O)c3cccc(Cl)c3)c(=O)oc12 [Compound C255]	
		11.5	7.9	CCOc1cccc2cc(S(=O)(=O)c3cccc(Cl)c3)c(=O)oc12 [Compound C256]	Firefly/Renilla (NR2F6 stable, clone F4) (Table 12): 2.3; Firefly, NR2F6 stable (clone F4)/pGL4 (Table 12): 4.5; Firefly, cmpd/DMSO repeat 1 (Table 12): 11.5; Firefly, cmpd/DMSO repeat 2 (Table 12): 7.9
		2.1	1.6	COc1cccc2cc(S(=O)(=O)c3ccc(F)c(C)c3)c(=O)oc12 [Compound C257]	
		1.5	1.8	CCOc1cccc2cc(S(=O)(=O)c3ccc(F)c(C)c3)c(=O)oc12 [Compound C258]	
2.0	1.4			COc1ccc2cc(S(=O)(=O)c3ccc(C)c(Cl)c3)c(=O)oc2c1 [Compound C261]	

Second part, the compound before the results:

SMILES	Firefly, cmpd/DMSO repeat 1 [1]	Firefly, cmpd/DMSO repeat 2 [1]	Firefly, cmpd/DMSO repeat 1 (Table 9)	Firefly, cmpd/DMSO repeat 2 (Table 9)	further results
O=c1oc2ccc(Cl)cc2cc1S(=O)(=O)c1ccccc1F [Compound C220]	10.4	6.5			Firefly/Renilla (NR2F6 stable, clone F4) (Table 13): 1.1; Firefly, NR2F6 stable (clone F4)/pGL4 (Table 13): 6.2; Firefly, cmpd/DMSO repeat 1 (Table 13): 10.4; Firefly, cmpd/DMSO repeat 2 (Table 13): 6.5
COc1ccc2oc(=O)c(S(=O)(=O)c3ccccc3F)cc2c1 [Compound C221]	1.3	0.9			
COc1ccc2oc(=O)c(S(=O)(=O)c3cccc(Cl)c3)cc2c1 [Compound C222]	4.5	3.7			Firefly/Renilla (NR2F6 stable, clone F4) (Table 13): 2.0; Firefly, NR2F6 stable (clone F4)/pGL4 (Table 13): 3.6; Firefly, cmpd/DMSO repeat 1 (Table 13): 4.5; Firefly, cmpd/DMSO repeat 2 (Table 13): 3.7
Cc1cc(S(=O)(=O)c2cc3cc(Br)ccc3oc2=O)ccc1F [Compound C223]	4.5	5.1			
Cc1cc(S(=O)(=O)c2cc3cc(Cl)ccc3oc2=O)ccc1F [Compound C224]	6.6	11.4			
COc1ccc2oc(=O)c(S(=O)(=O)c3ccc(F)c(C)c3)cc2c1 [Compound C225]	1.5	3.1			
CCOc1cccc2cc(S(=O)(=O)c3cc(F)cc(F)c3)c(=O)oc12 [Compound C230]			12.5	8.3	Firefly/Renilla (NR2F6 stable, clone F4) (Table 12): 2.5; Firefly, NR2F6 stable (clone F4)/pGL4 (Table 12): 6.5; Firefly, cmpd/DMSO repeat 1 (Table 12): 12.5; Firefly, cmpd/DMSO repeat 2 (Table 12): 8.3
CCOc1cccc2cc(S(=O)(=O)c3ccc(C)cc3)c(=O)oc12 [Compound C236]			4.4	4.9	
CCOc1cccc2cc(S(=O)(=O)c3ccc(F)cc3)c(=O)oc12 [Compound C237]			3.5	2.9	
CCOc1cccc2cc(S(=O)(=O)c3ccc(Br)cc3)c(=O)oc12 [Compound C239]			1.4	2.2	
CCOc1cccc2cc(S(=O)(=O)c3ccc(C(C)(C)C)cc3)c(=O)oc12 [Compound C240]			1.5	0.9	
CCOc1cccc2cc(S(=O)(=O)c3ccc(Cl)cc3)c(=O)oc12 [Compound C244]			9.7	14.1	
CCOc1ccc(S(=O)(=O)c2cc3cccc(OCC)c3oc2=O)cc1 [Compound C252]			3.2	2.4	
CCOc1cccc2cc(S(=O)(=O)c3ccccc3F)c(=O)oc12 [Compound C254]			7.6	5.1	Firefly/Renilla (NR2F6 stable, clone F4) (Table 12): 2.4; Firefly, NR2F6 stable (clone F4)/pGL4 (Table 12): 4.4; Firefly, cmpd/DMSO repeat 1 (Table 12): 7.6; Firefly, cmpd/DMSO repeat 2 (Table 12): 5.1
COc1cccc(S(=O)(=O)c2cc3ccc(OC)cc3oc2=O)c1 [Compound C259]	1.3	1.9			
COc1ccc2cc(S(=O)(=O)c3cc(C)cc(C)c3)c(=O)oc2c1 [Compound C260]	1.0	1.0			
COc1ccc2cc(S(=O)(=O)c3cc(F)cc(F)c3)c(=O)oc2c1 [Compound C262]	1.8	2.2			
COc1ccc2cc(S(=O)(=O)c3cccc(C#N)c3)c(=O)oc2c1 [Compound C263]	1.8	1.7			
COc1ccc2cc(S(=O)(=O)c3ccccc3)c(=O)oc2c1 [Compound C264]	1.1	0.8			
COc1ccc2cc(S(=O)(=O)c3ccc(C)cc3)c(=O)oc2c1 [Compound C265]	1.0	1.3			
COc1ccc(S(=O)(=O)c2cc3ccc(OC)cc3oc2=O)cc1 [Compound C266]	0.9	1.2			
COc1ccc2cc(S(=O)(=O)c3ccc(Br)cc3)c(=O)oc2c1 [Compound C267]	1.4	1.7			
COc1ccc2cc(S(=O)(=O)c3ccc(C(C)(C)C)cc3)c(=O)oc2c1 [Compound C268]	2.8	3.1			
COc1ccc2cc(S(=O)(=O)c3ccc(C(C)C)cc3)c(=O)oc2c1 [Compound C269]	3.0	3.0			
COc1ccc2cc(S(=O)(=O)c3ccc(C)c(C)c3)c(=O)oc2c1 [Compound C270]	3.2	3.1			
COc1ccc2cc(S(=O)(=O)c3ccc(Cl)cc3)c(=O)oc2c1 [Compound C271]	2.2	1.2			
